Source: patent EP4553083A1, “PEPTIDES AND THEIR USE FOR THE TREATMENT AND/OR PREVENTION OF MULTIPLE SCLEROSIS” (Cellerys AG, priority 2023, dated 2025)
Ends that are not written are not given here.

Tested on: TCC14
Experiment: Antigen specificity of TCC14 (co-cultivation with monocytes and peptide-coupled RBCs, fluorospot)
Assay type: cell-based, human
Conditions: irrelevant peptide; 48 hours; Figure 15
Method: In order to evaluate whether the IL-10 and IFN-γ secretion upon co-culturing TCC14 with active monocytes and peptide-coupled RBCs is antigen-specific, biotinylated SIN3A* peptide ([…]) (SEQ ID NO: 38) was coupled to RBCs and co-cultured with TCC14 and active monocytes. […] Therefore, it was tested if the SIN3A*-coupled RBCs have any effect on TCC14. Soluble SIN3A* peptide (QPVEFNHAIHYVN) (SEQ ID NO: 39) was used for stimulation.
Monocytes were magnetically isolated from PBMCs of a DR15 donor and seeded at 50×10^3 in each well. 25 ×10^3 of the TCC14 was seeded in each well (final volume 200 µl). Coupling to RBCs was performed with 1.58 mg/ml (0.132 mg/ml × 12) of the respective peptide. 200×10^3 RBCs were added to each well.
IFN-α was directly added into the wells at the time of seeding the cells at 10000 U/ml. In the samples with soluble peptides, 10 µM of the peptides was added to the wells. Plates were incubated for 48 hours and stained for IFN-γ, IL-10 and IL-17 according to the manufacturer's instructions (see fluorospot assay supra).

Substance | effect on the T cell clone (IL-10 and IFN-γ secretion)
QPVEFNHAIHYVN [SIN3A*, irrelevant peptide, a tumor-specific antigen not recognized by TCC14] | neither stimulatory nor inhibitory

Tested on: RASGRP2 78-87-specific T cell clones (TCCs)
Experiment: T cell reactivity in RASGRP2 (78-87) specific T cell clones (3H-thymidine assay)
Assay type: cell-based, human
Conditions: 72 hours; four DRB1*15:01-restricted clones; presented by BLS DR2b cells; Figure 6
Method: Four RASGRP2 78-87-specific T cell clones (TCCs) (cf. Wang et al., 2020, Cell, 183(5):1264-1281) were tested by 3H-thymidine incorporation (72 hours) for their responses against the biotinylated RASGRP2 (74-91) (SEQ ID NO: 2) peptide "bioRASGRP2 74-91" and a positive control, i.e. stimulation with anti-CD2/3/28-coupled beads. Each of the clones is DRB1*15:01-restricted.
Proliferation was measured 72 h after stimulation by 3H-thymidine (Hartmann Analytic, Braunschweig, Germany) incorporation in a scintillation counter (Wallac 1450, PerkinElmer, Rodgau-Jürgesheim, Germany). Depicted is the fold change over unstimulated control. Each dot represents the mean of 3 repeat wells for each clone. Peptides were presented in the assay by BLS cells transfected with DRA*01:01 and DRB1*15:01 (the heterodimer is referred to as BLS DR2b).

Substance | proliferative response (3H-thymidine incorporation)
biotinylated RASGRP2 (74-91): RASGRP2 (74-91) (SEQ ID NO: 2) coupled to a Biotin-PEG linker (Maleimide-PEG2-Biotin) (KTCHLVRYWISAFPAEFD; also: coupled to Maleimide-PEG2-Biotin linker, site not given here; listed as Homo sapiens) | positive proliferative response

Tested on: not listed separately
Experiment: Peptide solubility test in saline (visual: cloudy = insoluble, clear = soluble)
Conditions: at a concentration of 10 mg/ml; visual assessment
Method: MBP, MOG and PLP peptides were also tested.
Peptides were added to saline at different concentrations and it was visually assessed whether the resulting sample was cloudy (peptide insoluble) or clear (peptide soluble).

solubility in saline | Substance
soluble in saline | KTCHLVRYWISAFPAEFD [RASGRP2 (74-91), KTCHLVRYWISAFPAEFD]
soluble in saline | LSVGEEDEVS [TSTA3-3 (242-251), LSVGEEDEVS]
soluble in saline | FRFTPFKQAVKETCA [TSTA3-4 (296-310), FRFTPFKQAVKETCA]
soluble in saline | TAQTRALFEKVQPTH [TSTA3-1 (51-65), TAQTRALFEKVQPTH]
soluble in saline | PHNSNFGYSYAKRMI [TSTA3-2 (136-150), PHNSNFGYSYAKRMI]

Same assay, conditions: concentration not given; visual assessment

solubility in saline | Substance
not soluble in saline | LVRYWISAFP [RASGRP2 78-87, LVRYWISAFP]
insoluble in saline | SLQVKTCHLVRYWISAFPAEFDLNPE [RASGRP2 70-95]
insoluble in saline | SNSLQVKTCHLVRYWISAFPAEFDLNPELA [RASGRP2 68-97]
insoluble in saline | LVRYWISAFPAEFDL [RASGRP2 78-92, LVRYWISAFPAEFDL]

Substance | solubility in saline
LVRYWISAFPAEFDLNPE [RASGRP2 78-95, LVRYWISAFPAEFDLNPE] | insoluble in saline
